In ChEMBL document CHEMBL1201862, “PubChem BioAssay data set” (2004):
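All cell lines were grown in 96-well plates and treated with compound for 48 hours. GI50: concentration for 50% inhibition of growth.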 The source made the active and inactive calls. Rule as the data show it: active = GI50 up to about 1.1 µM and inactive = higher. Where a SMILES comes first, the peptide text is derived from it. [ ]: non-standard residue; d: D form. Ac5c = NC1(C(=O)O)CCCC1

Experiments:
Test in all cases: NCI-60 cell line screen, 48 h
[1] = system: OVCAR-4
[2] = system: SK-MEL-5
[3] = system: OVCAR-8
[4] = system: HOP-92
[5] = system: SK-OV-3
[6] = system: T47D
[7] = system: KM12
[8] = system: UACC-62
[9] = system: DU-145
[10] = system: SW-620
[11] = system: 786-0
[12] = system: HT-29
[13] = system: SNB-75
[14] = system: SN12C
[15] = system: SR
[16] = system: SF-295
[17] = system: HL-60
[18] = system: PC-3
[19] = system: MDA-MB-231
[20] = system: COLO 205
[21] = system: UACC-257
[22] = system: HCC 2998
[23] = system: NCI-H23
[24] = system: TK-10
[25] = system: M14
[26] = system: SK-MEL-28
[27] = system: RXF 393
[28] = system: K562
[29] = system: MDA-N
[30] = system: IGROV-1
[31] = system: CAKI-1
[32] = system: HCT-15
[33] = system: CCRF-CEM
[34] = system: A549
[35] = system: EKVX
[36] = system: RPMI-8226
[37] = system: MOLT-4
[38] = system: MCF7
[39] = system: MDA-MB-435
[40] = system: Malme-3M
[41] = system: SF-268
[42] = system: LOX IMVI
[43] = system: OVCAR-3
[44] = system: UO-31
[45] = system: NCI-H460
[46] = system: A498
[47] = system: NCI/ADR-RES
[48] = system: Hs-578T
[49] = system: NCI-H522
[50] = system: HOP-62
[51] = system: SNB-19
[52] = system: SF-539
[53] = system: OVCAR-5
[54] = system: ACHN
[55] = system: SK-MEL-2
[56] = system: NCI-H226
[57] = system: HCT-116
[58] = system: U-251

## CCSc1[nH]c(/N=C(/NC(=O)c2ccccc2)NC(C)C)c(C(N)=O)c1C(N)=O
[1]
  GI50: > 10 µM (inactive)
[2]
  GI50: > 10 µM (inactive)
[3]
  GI50: > 10 µM (inactive)
[4]
  GI50: > 10 µM (inactive)
[5]
  GI50: > 10 µM (inactive)
[6]
  GI50: > 10 µM (inactive)
[7]
  GI50: > 10 µM (inactive)
[8]
  GI50: > 10 µM (inactive)
[9]
  GI50: > 10 µM (inactive)
[10]
  GI50: > 10 µM (inactive)
[11]
  GI50: > 10 µM (inactive)
[12]
  GI50: > 10 µM (inactive)
[13]
  GI50: > 10 µM (inactive)
[14]
  GI50: > 10 µM (inactive)
[15]
  GI50: > 10 µM (inactive)
[16]
  GI50: > 10 µM (inactive)
[17]
  GI50: > 10 µM (inactive)
[18]
  GI50: > 10 µM (inactive)
[19]
  GI50: > 10 µM (inactive)
[20]
  GI50: > 10 µM (inactive)
[21]
  GI50: > 10 µM (inactive)
[22]
  GI50: > 10 µM (inactive)
[23]
  GI50: > 10 µM (inactive)
[24]
  GI50: > 10 µM (inactive)
[25]
  GI50: > 10 µM (inactive)
[26]
  GI50: > 10 µM (inactive)
[27]
  GI50: > 10 µM (inactive)
[28]
  GI50: > 10 µM (inactive)
[29]
  GI50: > 10 µM (inactive)
[30]
  GI50: > 10 µM (inactive)
[31]
  GI50: > 10 µM (inactive)
[32]
  GI50: > 10 µM
[33]
  GI50: > 10 µM (inactive)
[34]
  GI50: > 10 µM (inactive)
[35]
  GI50: > 10 µM (inactive)
[36]
  GI50: > 10 µM (inactive)
[37]
  GI50: > 10 µM (inactive)
[38]
  GI50: > 10 µM (inactive)
[39]
  GI50: > 10 µM (inactive)
[40]
  GI50: > 10 µM (inactive)
[41]
  GI50: > 10 µM (inactive)
[42]
  GI50: > 10 µM (inactive)

## CCc1n[nH]c(=O)n1-c1ccc2ccccc2c1
[1]
  GI50: > 100 µM (inactive)
[2]
  GI50: > 100 µM (inactive)
[43]
  GI50: > 100 µM (inactive)
[3]
  GI50: > 100 µM (inactive)
[44]
  GI50: > 100 µM (inactive)
[4]
  GI50: > 100 µM (inactive)
[5]
  GI50: > 100 µM (inactive)
[45]
  GI50: > 100 µM (inactive)
[6]
  GI50: > 100 µM (inactive)
[46]
  GI50: > 100 µM (inactive)
[47]
  GI50: > 100 µM (inactive)
[48]
  GI50: > 100 µM (inactive)
[49]
  GI50: > 100 µM (inactive)
[50]
  GI50: > 100 µM (inactive)
[51]
  GI50: > 100 µM (inactive)
[7]
  GI50: > 100 µM (inactive)
[52]
  GI50: > 100 µM (inactive)
[8]
  GI50: > 100 µM (inactive)
[53]
  GI50: > 100 µM (inactive)
[9]
  GI50: > 100 µM (inactive)
[10]
  GI50: > 100 µM (inactive)
[11]
  GI50: > 100 µM (inactive)
[12]
  GI50: > 100 µM (inactive)
[54]
  GI50: > 100 µM (inactive)
[13]
  GI50: > 100 µM (inactive)
[14]
  GI50: > 100 µM (inactive)
[15]
  GI50: > 100 µM (inactive)
[16]
  GI50: > 100 µM (inactive)
[55]
  GI50: > 100 µM (inactive)
[19]
  GI50: > 100 µM (inactive)
[20]
  GI50: > 100 µM (inactive)
[56]
  GI50: > 100 µM (inactive)
[57]
  GI50: > 100 µM (inactive)
[21]
  GI50: > 100 µM (inactive)
[22]
  GI50: > 100 µM (inactive)
[23]
  GI50: > 100 µM (inactive)
[24]
  GI50: > 100 µM (inactive)
[25]
  GI50: > 100 µM (inactive)
[58]
  GI50: > 100 µM (inactive)
[26]
  GI50: > 100 µM (inactive)
[27]
  GI50: > 100 µM (inactive)
[28]
  GI50: > 100 µM (inactive)
[29]
  GI50: > 100 µM (inactive)
[30]
  GI50: > 100 µM (inactive)
[31]
  GI50: > 100 µM (inactive)
[32]
  GI50: > 100 µM
[33]
  GI50: > 100 µM (inactive)
[34]
  GI50: > 100 µM (inactive)
[35]
  GI50: > 100 µM (inactive)
[36]
  GI50: > 100 µM (inactive)
[37]
  GI50: > 100 µM (inactive)
[38]
  GI50: > 100 µM (inactive)
[39]
  GI50: > 100 µM (inactive)
[40]
  GI50: > 100 µM (inactive)
[41]
  GI50: > 100 µM (inactive)
[42]
  GI50: > 100 µM (inactive)

## COC(=O)C1(NC(=O)C(C)NC(=O)C(CCCCN)NC(=O)C(CC(C)C)NC(C)=O)CCCC1 (stereo unspecified) (Ac-LKA[Ac5c]-OMe; configuration not given here)
[1]
  GI50: > 10 µM (inactive)
[2]
  GI50: > 100 µM (inactive)
[3]
  GI50: > 100 µM (inactive)
[44]
  GI50: > 100 µM (inactive)
[5]
  GI50: > 100 µM (inactive)
[45]
  GI50: > 100 µM (inactive)
[6]
  GI50: > 100 µM (inactive)
[48]
  GI50: > 100 µM (inactive)
[49]
  GI50: > 100 µM (inactive)
[50]
  GI50: > 100 µM (inactive)
[51]
  GI50: > 100 µM (inactive)
[7]
  GI50: > 100 µM (inactive)
[52]
  GI50: > 100 µM (inactive)
[10]
  GI50: > 100 µM (inactive)
[11]
  GI50: > 100 µM (inactive)
[12]
  GI50: > 100 µM (inactive)
[54]
  GI50: > 100 µM (inactive)
[13]
  GI50: > 100 µM (inactive)
[14]
  GI50: > 100 µM (inactive)
[15]
  GI50: > 100 µM (inactive)
[16]
  GI50: > 100 µM (inactive)
[17]
  GI50: > 100 µM (inactive)
[18]
  GI50: > 100 µM (inactive)
[19]
  GI50: > 100 µM (inactive)
[20]
  GI50: > 100 µM (inactive)
[57]
  GI50: > 100 µM (inactive)
[21]
  GI50: > 100 µM (inactive)
[22]
  GI50: > 100 µM (inactive)
[24]
  GI50: > 100 µM (inactive)
[25]
  GI50: > 100 µM (inactive)
[26]
  GI50: > 100 µM (inactive)
[28]
  GI50: > 100 µM (inactive)
[29]
  GI50: > 100 µM (inactive)
[30]
  GI50: > 100 µM (inactive)
[32]
  GI50: > 100 µM
[33]
  GI50: > 100 µM (inactive)
[34]
  GI50: > 100 µM (inactive)
[35]
  GI50: > 100 µM (inactive)
[36]
  GI50: > 100 µM (inactive)
[37]
  GI50: > 100 µM (inactive)
[38]
  GI50: > 100 µM (inactive)
[39]
  GI50: > 100 µM (inactive)
[41]
  GI50: > 100 µM (inactive)
